Data as given in publication PMC6641291 (ACS Omega, 2018).

biological target: T1, δ^1-pyrroline-5-carboxylate reductase (P5C reductase) (Arabidopsis thaliana, UniProt P54904); test: P5C-dependent NADH oxidation, absorbance at […] nm; format: biochemical
T1 sequence (P54904 1-276): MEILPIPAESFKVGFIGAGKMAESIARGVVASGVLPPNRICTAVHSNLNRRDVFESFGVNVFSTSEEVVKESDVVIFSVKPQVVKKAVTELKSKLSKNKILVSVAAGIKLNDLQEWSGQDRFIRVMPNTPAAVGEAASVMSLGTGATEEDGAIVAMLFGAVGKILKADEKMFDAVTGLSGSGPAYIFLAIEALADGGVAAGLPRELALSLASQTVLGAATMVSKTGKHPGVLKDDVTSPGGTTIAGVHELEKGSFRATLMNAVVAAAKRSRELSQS

Row | SMILES | IC50 [mM]
1 | O=P(O)(O)[C@@H]1CCCN1 [(R)-1, Pyrrolidin-2-ylphosphonic Acid] | 24 ± 4
2 | O=C(O)[C@@H]1CCCN1 [proline] | 84 ± 3
3 | O=P(O)(O)[C@@H]1CCCON1 [(R)-6, (R)-(−)-1,2-oxazinan-3-ylphosphonic acid] | 45 ± 19
4 | O=P(O)(O)[C@H]1CCCN1 [(S)-1, Pyrrolidin-2-ylphosphonic Acid] | 21 ± 2
